Data as given in patent US8124834B2, “Use of active cytokinin synthase gene” (Riken, priority 2006, dated 2012).

Legend:
LOG protein [1] = target: T1, LOG protein (Oryza sativa subsp. japonica, UniProt Q5ZC82); experiment: Substrate specificity of LOG protein to nucleotide cytokinin forms and AMP; assay type: biochemical; design: the protein coding region of the LOG gene cDNA was inserted into pCOLD-I (TaKaRa), a His-tag protein expression vector; made in house; host or cells: E. coli BL21(DE3)[pG-Tf2]; conditions: 0.02 μg LOG protein, 100 μM substrate, pH 6.5, 4 minutes (iPRDP, iPRTP: 0.01 μg, 2 minutes)
T1 sequence (Q5ZC82 1-242): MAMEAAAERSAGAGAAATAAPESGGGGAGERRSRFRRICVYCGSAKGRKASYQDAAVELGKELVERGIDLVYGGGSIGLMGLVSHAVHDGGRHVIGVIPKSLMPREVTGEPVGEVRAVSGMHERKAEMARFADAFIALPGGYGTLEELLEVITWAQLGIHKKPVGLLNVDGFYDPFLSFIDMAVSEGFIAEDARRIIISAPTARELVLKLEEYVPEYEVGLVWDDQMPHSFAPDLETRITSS
Description: The reaction specificity of the LOG protein to a nucleotide cytokinin form was analyzed. […] The following 7 types of substrates were used: iPRMP, tZRMP, dihydrozeatin riboside 5′-monophosphate (DZRMP), cZR 5′-monophosphate (cZRMP), iPR 5′-diphosphate (iPRDP), iPR 5′-triphosphate (iPRTP), and AMP. The reaction conditions are as follows. 0.02 μg of the LOG protein was used for a single reaction, and it was reacted with a 100 μM substrate in 200 μl of a reaction solution containing 50 mM Tris-HCl, 1 mM MgCl2, 1 mM DTT, pH 6.5. Thereafter, 0 minute and 4 minutes after initiation of the reaction, 600 μl of cold acetone was added to the reaction solution to terminate the reaction. The reaction solution was left at rest at −80° C. for 30 minutes, and it was then centrifuged at 15,000 rpm for 20 minutes. Thereafter, a supernatant was dried using a centrifugal thickener. […] Only the injection amount was changed to 50 μl. In the case of iPRDP and iPRTP, the amount of a reaction solution was determined to be 100 μl, the mass of a protein used was determined to be 0.01 μg, and the reaction time was determined to be 2 minutes.

LOG protein [2] = target: T1, LOG protein; experiment: Measurement of Km value of LOG protein to iPRMP and tZRMP; assay type: biochemical; design: the protein coding region of the LOG gene cDNA was inserted into pCOLD-I (TaKaRa), a His-tag protein expression vector; made in house; host or cells: E. coli BL21(DE3)[pG-Tf2]; conditions: 0.02 μg LOG protein; for specific activity of the LOG protein: substrate 5-100 μM, pH 6.5
Description: In order to obtain the Km value of the LOG protein to typical substrates iPRMP and tZRMP, the following experiment was carried out. 0.02 μg of LOG protein was used for a single reaction, and it was reacted with a substrate in a substrate concentration of each of 5, 8, 15, 30 and 100 μM in 200 μl of a reaction solution containing 50 mM Tris-HCl, 1 mM MgCl2, 1 mM DTT, pH 6.5. Thereafter, 0 minute, 2 minutes and 4 minutes after initiation of the reaction, 600 μl of cold acetone was added to the reaction solution to terminate the reaction. The reaction solution was left at rest at −80° C. for 30 minutes, and it was then centrifuged at 15,000 rpm for 20 minutes. Thereafter, a supernatant was dried using a centrifugal thickener. The resultant was dissolved in 100 μl of 2% acetic acid, and a reaction product was then detected and quantified under the same conditions as those for the liquid chromatography of Example 2. Only the injection amount was changed to 50 μl. The aforementioned experiment was carried out three times, and the Km value was calculated.

LOG protein [3] = target: T1, LOG protein; experiment: Detection of enzyme activity of recombinant LOG protein with cytokinin substrates (HPLC); assay type: biochemical; design: the protein coding region of the LOG gene cDNA was inserted into pCOLD-I (TaKaRa), a His-tag protein expression vector; made in house; host or cells: E. coli BL21(DE3)[pG-Tf2]; conditions: 3 μg LOG protein, 50 μM substrate, pH7, 30° C., 2 hours, HPLC absorption at 270 nm
Description: The following 8 types of cytokinin substrates were used: N^6-(delta-2-isopentenyl)adenine (iP), trans-zeatin (tZ), cis-zeatin (cZ), iP riboside (iPR), tZ riboside (tZR), cZ riboside (cZR), iPR 5′-monophosphate (iPRMP), and tZR 5′-monophosphate (tZRMP). As reaction conditions, 100 μl of a reaction solution containing 50 mM Tris-HCl, 1 mM MgCl2, and a 50 μM substrate, pH7 was incubated at 30° C. for 2 hours. Thereafter, 10 μl of 20% acetic acid was added to the reaction solution to terminate the reaction, and the reaction solution was then centrifuged at 15,000 rpm at a room temperature for 20 minutes. […] For elution, solvent C (100% acetonitrile) and solvent D (2% acetic acid) were used.

[4] = system: AtLOG 1, 2, 3, 4, 5, 7 and 8 proteins; experiment: Confirmation of LOG enzyme activity of Arabidopsis thaliana LOG homolog proteins (substrate specificity); assay type: biochemical; conditions: purified AtLOG 1, 2, 3, 4, 5, 7 and 8 proteins, result stated for all together
Description: 3 μg of the recombinant LOG protein obtained in Example 1 was allowed to react with various types of cytokinins used as substrates. The following 8 types of cytokinin substrates were used: N^6-(delta-2-isopentenyl)adenine (iP), trans-zeatin (tZ), cis-zeatin (cZ), iP riboside (iPR), tZ riboside (tZR), cZ riboside (cZR), iPR 5′-monophosphate (iPRMP), and tZR 5′-monophosphate (tZRMP). As reaction conditions, 100 μl of a reaction solution containing 50 mM Tris-HCl, 1 mM MgCl2, and a 50 μM substrate, pH7 was incubated at 30° C. for 2 hours. Thereafter, 10 μl of 20% acetic acid was added to the reaction solution to terminate the reaction, and the reaction solution was then centrifuged at 15,000 rpm at a room temperature for 20 minutes. Thereafter, 20 μl of a supernatant was analyzed by liquid chromatography using HPLC (Waters Alliance 2695/PDA detector 2996). As a column, Symmetry C18, 3.5 μm, 2.1×100 mm cartridge (Waters) was used. For elution, solvent C (100% acetonitrile) and solvent D (2% acetic acid) were used.
The reaction specificity of the LOG protein to a nucleotide cytokinin form was analyzed. At the same time, the presence or absence of the reactivity of the LOG protein to AMP was also analyzed. […] The resultant was dissolved in 100 μl of 2% acetic acid, and the reaction product was then detected and quantified under the same conditions as those for the liquid chromatography of Example 2. […] In the case of iPRDP and iPRTP, the amount of a reaction solution was determined to be 100 μl, the mass of a protein used was determined to be 0.01 μg, and the reaction time was determined to be 2 minutes.
The enzyme activity of each of the purified AtLOG proteins was evaluated under the same reaction conditions as those of Example 2. […] In addition, the enzyme property of each AtLOG protein to iPRMP was determined in the same manner as in Example 5 (Table 4). In Table 4, the Km, Vmax and Kcat values were calculated based on a reaction under the optimal pH condition of each AtLOG protein.

LOG protein [5] = target: T1, LOG protein; conditions: 3 μg LOG protein, 5 mM L-lysine, pH 6.0, 40° C., 60 minutes, HPLC absorption at 226 nm
Text: As a column, Symmetry C18, 3.5 μm, 2.1×100 mm cartridge (Waters) was used.

| Compound | reactivity of LOG protein to the substrate (substrate specificity) (LOG protein [1]) | Km (LOG protein [2]; substrate 5, 8, 15, 30 and 100 μM, pH 6.5, experiment carried out three times) | specific activity of the LOG protein (LOG protein [2]) | reactivity of the substrate with recombinant LOG protein (conversion to base form) (LOG protein [3]) | reactivity of AtLOG proteins to the substrate (substrate specificity) [4] | reactivity of LOG protein to lysine (LOG protein [5]) |
| --- | --- | --- | --- | --- | --- | --- |
| C/C(=C\CNc1ncnc2c1ncn2[C@@H]1O[C@H](COP(=O)(O)O)[C@@H](O)[C@H]1O)CO (relative stereo) [tZRMP, trans-zeatin riboside 5′-monophosphate] | uses as a substrate | 22 ± 3.6 µM | 4.2 μmol/min^−1/mg^−1 protein | completely converted |  |  |
| Nc1ncnc2c1ncn2[C@@H]1O[C@H](COP(=O)(O)O)[C@@H](O)[C@H]1O [AMP] | no reactivity |  |  |  | almost no reactivity |  |
| CC(C)=CCNc1ncnc2c1ncn2[C@@H]1O[C@H](COP(=O)(O)OP(=O)(O)O)[C@@H](O)[C@H]1O [iPRDP, iPR 5′-diphosphate] | no reactivity |  |  |  | almost no reactivity |  |
| CC(C)=CCNc1ncnc2c1ncn2[C@@H]1O[C@H](COP(=O)(O)O)[C@@H](O)[C@H]1O [iPRMP, isopentenyladenine riboside 5′-monophosphate] | uses as a substrate |  | 5.6 μmol/min^−1/mg^−1 protein | completely converted |  |  |
| CC(C)=CCNc1ncnc2c1ncn2[C@@H]1O[C@H](COP(=O)(O)OP(=O)(O)OP(=O)(O)O)[C@@H](O)[C@H]1O [iPRTP, iPR 5′-triphosphate] | no reactivity |  |  |  | almost no reactivity |  |
| NCCCC[C@H](N)C(=O)O [lysine, L-lysine] |  |  |  |  |  | did not exhibit reactivity |
